Results taken from the supplement of paper PMC10307832.

Key:
Assay in all cases: relative viability (nuclei count vs DMSO), 5 days (fraction); higher = more cells survive
[1] = compound: CC(O)(CS(=O)(=O)c1ccc(F)cc1)C(=O)Nc1ccc(C#N)c(C(F)(F)F)c1 [Bicalutamide] + CCNC(=O)c1noc(-c2cc(C(C)C)c(O)cc2O)c1-c1ccc(CN2CCOCC2)cc1 [Luminespib] (partner 0.01 µM)
In short: (§1)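 Relative viability divides the nuclei count in treated wells by that in vehicle wells. Lung cancer cell lines were seeded in 1536-well plates, dosed by pin tool the next day, and fixed and stained after 5 days in one step with final 0.05% Triton X-100, 1% formaldehyde and 1 ug/ml Hoechst. Dosing was a single drug or a fixed anchor-drug dose plus five library-drug doses (not always all listed) in √10 steps, and values are medians of duplicate plates imaged at 4×.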

[2] = compound: CC(O)(CS(=O)(=O)c1ccc(F)cc1)C(=O)Nc1ccc(C#N)c(C(F)(F)F)c1 [Bicalutamide] + CC(=O)c1c(C)c2cnc(Nc3ccc(N4CCNCC4)cn3)nc2n(C2CCCC2)c1=O [Palbociclib] (partner 0.5 µM)
In short: as §1

[3] = compound: CC(O)(CS(=O)(=O)c1ccc(F)cc1)C(=O)Nc1ccc(C#N)c(C(F)(F)F)c1 [Bicalutamide] + N=C(N)NC(=N)NCCc1ccccc1 [Phenformin] (partner 250 µM)
In short: as §1

[4] = compound: C(C(=O)C(=O)O)Br [Bromopyruvate] + CS(=O)(=O)CCNCc1ccc(-c2ccc3ncnc(Nc4ccc(OCc5cccc(F)c5)c(Cl)c4)c3c2)o1 [Lapatinib] (partner 2 µM)
In short: as §1

Cell Line | relative viability ([1]; first compound 0.08 µM) | relative viability ([1]; first compound 0.253 µM) | relative viability ([1]; first compound 0.8 µM) | relative viability ([1]; first compound 2.53 µM) | relative viability ([2]; first compound 0.08 µM) | relative viability ([2]; first compound 0.253 µM) | relative viability ([2]; first compound 0.8 µM) | relative viability ([2]; first compound 2.53 µM) | relative viability ([3]; first compound 0.08 µM) | relative viability ([3]; first compound 0.253 µM) | relative viability ([3]; first compound 0.8 µM) | relative viability ([3]; first compound 2.53 µM) | relative viability ([4]; first compound 1 µM) | relative viability ([4]; first compound 3.162 µM) | relative viability ([4]; first compound 10 µM) | relative viability ([4]; first compound 31.62 µM) | relative viability ([4]; first compound 100 µM)
EKVX | 0.94 | 0.871 | 0.964 | 0.892 | 0.381 | 0.392 | 0.445 | 0.374 | 0.246 | 0.223 | 0.233 | 0.24 | 0.218 | 0.213 | 0.343 | 0.207 | 0.211
LXF-289 | 0.667 | 0.6 | 0.637 | 0.694 | 0.596 | 0.543 | 0.614 | 0.592 | 0.596 | 0.481 | 0.55 | 0.519 | 0.967 | 0.879 | 0.935 | 0.914 | 0.959
ABC-1 | 0.558 | 0.296 | 0.749 | 0.596 | 0.698 | 0.474 | 0.808 | 0.601 | 0.26 | 0.229 | 0.253 | 0.212 | 1.34 | 1.24 | 1.36 | 1.13 | 1.18
NCI-H661 | 0.938 | 0.94 | 0.928 | 0.954 | 0.418 | 0.409 | 0.424 | 0.388 | 0.289 | 0.284 | 0.289 | 0.251 | 0.52 | 0.475 | 0.623 | 0.526 | 0.559
NCI-H1650 | 0.181 | 0.165 | 0.171 | 0.196 | 0.435 | 0.314 | 0.464 | 0.355 | 0.429 | 0.375 | 0.493 | 0.378 | 0.765 | 0.69 | 0.75 | 0.81 | 0.815
NCI-H2087 | 0.157 | 0.153 | 0.168 | 0.259 | 0.222 | 0.272 | 0.237 | 0.24 | 0.539 | 0.449 | 0.642 | 0.435 | 1.06 | 1.02 | 1.09 | 0.91 | 1.05
NCI-H1793 | 0.198 | 0.364 | 0.203 | 0.165 | 0.265 |  | 0.423 | 0.382 | 0.317 | 0.318 | 0.545 | 0.392 | 0.593 | 1.11 | 0.674 | 0.842 | 0.59
LC-2-ad | 1.1 | 0.954 | 1.03 | 1.06 | 0.475 | 0.473 | 0.464 | 0.516 | 0.607 | 0.529 | 0.654 | 0.56 | 0.977 | 0.982 | 0.933 | 0.921 | 0.971
COR-L 105 | 1.04 | 0.721 | 0.911 | 0.652 | 0.405 | 0.407 | 0.379 | 0.379 | 0.481 | 0.412 | 0.52 | 0.37 | 0.393 | 0.385 | 0.362 | 0.353 | 0.392
NCI-H1355 | 0.797 | 0.694 | 0.787 | 0.818 | 0.4 | 0.382 | 0.437 | 0.374 | 0.456 | 0.44 | 0.481 | 0.492 | 0.978 | 0.986 | 1.06 | 0.995 | 0.965
H3255 | 0.827 | 0.857 |  | 0.813 | 0.35 | 0.324 | 0.308 | 0.302 | 0.42 | 0.337 |  | 0.352 | 0.272 | 0.321 | 0.239 | 0.249 | 0.273
NCI-H2009 | 1.06 | 1.01 | 0.987 | 1.04 | 0.241 | 0.246 | 0.252 | 0.255 | 0.504 | 0.491 | 0.469 | 0.423 | 0.903 | 0.783 | 0.877 | 0.874 | 0.909
NCI-H1734 | 0.193 | 0.174 | 0.212 | 0.186 | 0.332 | 0.283 | 0.379 | 0.328 | 0.41 | 0.338 | 0.458 | 0.416 | 1.08 | 0.944 | 1.26 | 1.08 | 1.12
HOP-62 | 0.917 | 1.01 | 1.09 | 0.885 | 0.47 | 0.464 | 0.566 | 0.502 | 0.681 | 0.651 | 0.769 | 0.698 | 1.04 | 1.02 |  | 1.02 | 1.02
LOU-NH91 | 0.367 | 0.295 | 0.331 | 0.322 | 0.449 | 0.548 | 0.553 | 0.541 | 0.745 | 0.493 | 0.814 | 0.821 | 0.818 | 0.706 | 0.735 | 0.815 | 0.824
NCI-H23 | 0.223 | 0.195 | 0.171 | 0.212 | 0.529 | 0.503 | 0.515 | 0.471 | 0.851 | 0.694 | 0.883 | 0.765 | 1.05 | 1.04 | 1.16 | 1.06 | 1.04

Cell Line | relative viability ([1]; first compound 0.08 µM) | relative viability ([1]; first compound 0.253 µM) | relative viability ([1]; first compound 0.8 µM) | relative viability ([1]; first compound 2.53 µM) | relative viability ([2]; first compound 0.08 µM) | relative viability ([2]; first compound 0.253 µM) | relative viability ([2]; first compound 0.8 µM) | relative viability ([2]; first compound 2.53 µM) | relative viability ([3]; first compound 0.08 µM) | relative viability ([3]; first compound 0.253 µM) | relative viability ([3]; first compound 0.8 µM) | relative viability ([3]; first compound 2.53 µM) | relative viability ([4]; first compound 1 µM) | relative viability ([4]; first compound 3.162 µM) | relative viability ([4]; first compound 10 µM) | relative viability ([4]; first compound 31.62 µM) | relative viability ([4]; first compound 100 µM)
PC-3 [JPC-3] | 0.665 | 0.659 | 0.667 | 0.734 | 0.556 | 0.576 | 0.567 | 0.552 | 0.46 | 0.472 | 0.505 | 0.505 | 0.474 | 0.44 | 0.441 | 0.468 | 0.467
NCI-H1437 | 1.17 | 1.15 | 1.1 | 1.05 | 0.305 | 0.283 | 0.342 | 0.343 | 0.341 | 0.264 | 0.422 | 0.309 | 0.845 | 0.768 | 1.1 | 0.801 | 0.804
NCI-H520 | 0.232 | 0.22 | 0.274 | 0.205 | 0.188 | 0.185 | 0.286 | 0.226 | 0.707 | 0.421 | 0.61 | 0.366 | 0.846 | 0.966 | 0.98 | 0.766 | 0.739
NCI-H1666 | 1.04 | 0.989 | 1.03 | 0.961 | 0.652 | 0.603 | 0.652 | 0.675 | 0.613 | 0.541 | 0.569 | 0.537 | 0.823 | 0.666 | 0.677 | 0.701 | 0.557
NCI-H1651 | 0.767 | 0.67 | 0.918 | 0.874 | 0.526 | 0.515 | 0.582 | 0.518 | 0.36 | 0.377 | 0.411 | 0.345 | 0.858 | 0.909 | 0.905 | 0.764 | 0.829
NCI-H1755 | 0.475 | 0.58 | 0.435 | 0.292 | 0.472 | 0.42 | 0.473 | 0.43 | 0.651 | 0.595 | 0.596 | 0.551 | 0.988 | 1.02 | 1.02 | 1.07 | 1.19
NCI-H727 | 0.366 |  | 0.378 | 0.339 | 0.647 | 0.645 | 0.693 | 0.635 | 0.618 |  | 0.734 | 0.821 | 1.13 | 0.928 | 0.862 | 0.781 | 0.86
HARA | 0.987 | 0.721 | 0.678 | 0.847 | 0.246 | 0.262 | 0.329 | 0.242 | 0.516 | 0.388 | 0.595 | 0.481 | 0.825 | 0.829 | 0.707 | 0.9 | 0.844
NCI-H647 | 0.126 | 0.114 | 0.255 | 0.112 | 0.415 | 0.381 | 0.503 | 0.385 | 0.646 | 0.596 | 0.758 | 0.385 | 1.02 | 0.972 | 1.19 | 1.15 | 0.916
NCI-H2347 | 0.357 | 0.399 | 0.263 | 0.673 | 0.473 | 0.468 | 0.446 | 0.399 | 0.368 | 0.462 | 0.421 | 0.268 | 0.897 | 1.02 | 1.18 | 0.782 | 1.15
LCLC-97TM1 | 0.793 | 0.659 | 0.941 | 0.829 | 0.227 | 0.216 | 0.3 | 0.225 | 0.442 | 0.426 | 0.463 | 0.443 |  |  | 0.864 | 1.28 | 0.82
EPLC-272H | 0.178 | 0.293 | 1.17 | 0.154 | 0.328 | 0.313 | 0.341 | 0.295 | 0.34 | 0.274 | 0.311 | 0.315 | 1.02 | 1.06 | 0.839 | 0.916 | 1.05
NCI-H1915 | 0.761 | 0.69 | 0.934 | 0.762 | 0.534 | 0.463 | 0.595 | 0.473 | 0.375 | 0.313 | 0.368 | 0.362 | 0.95 | 0.98 | 0.976 | 0.98 | 0.991
NCI-H3122 | 0.0979 | 0.0782 | 0.126 | 0.106 | 0.193 | 0.183 | 0.201 | 0.181 | 0.46 | 0.416 | 0.378 | 0.369 | 0.982 | 1.05 | 0.961 | 1.01 | 1.01
NCI-H2170 | 0.689 | 0.527 | 0.588 | 0.591 | 0.378 | 0.34 | 0.438 | 0.397 | 0.418 | 0.412 | 0.429 | 0.47 | 0.25 | 0.284 | 0.277 | 0.246 | 0.293
